According to ChEMBL document CHEMBL4261644, “Novel Symmetrical Benzazolyl Derivatives Endowed with Potent Anti-Heparanase Activity” (J Med Chem, 2018):
pIC50: −log10 of the molar value. One block for each compound: values may come before it. Active and inactive are the calls of the source. No cut-off for these calls is given here.

Tests used:
HT-1080 [1] = assay: Anti-invasive activity in human HT1080 cells assessed as reduction in invasive potential at 10 uM after 24 hrs by matrigel invasion assay relative to control; assay type: functional; settings: HT-1080, 24 h
U2OS [2] = assay: Anti-invasive activity in human U2OS cells assessed as reduction in invasive potential at 10 uM after 24 hrs by matrigel invasion assay relative to control; assay type: functional
U-87 MG [3] = assay: Antiproliferative activity against human U87MG cells after 72 hrs by SRB assay; assay type: cell-based, U-87MG ATCC; settings: for IC50: u-87mg atcc
U2OS [4] = assay: Antiproliferative activity against human U2OS cells after 72 hrs by SRB assay; assay type: cell-based; settings: for IC50: u2os
HT-1080 [5] = assay: Antiproliferative activity against human HT1080 cells after 72 hrs by SRB assay; assay type: cell-based; settings: for IC50: ht-1080
U-87 MG [6] = assay: Anti-invasive activity in human U87MG cells assessed as reduction in invasive potential at 10 uM after 24 hrs by matrigel invasion assay relative to control; assay type: functional, U-87MG ATCC
Heparanase = biological target: T1, Heparanase (Homo sapiens, UniProt Q9Y251); assay: Inhibition of recombinant HPSE (unknown origin) using fondaparinux as substrate incubated for 3 hrs in absence of light by WST1 assay
T1 sequence (Q9Y251 whole entry): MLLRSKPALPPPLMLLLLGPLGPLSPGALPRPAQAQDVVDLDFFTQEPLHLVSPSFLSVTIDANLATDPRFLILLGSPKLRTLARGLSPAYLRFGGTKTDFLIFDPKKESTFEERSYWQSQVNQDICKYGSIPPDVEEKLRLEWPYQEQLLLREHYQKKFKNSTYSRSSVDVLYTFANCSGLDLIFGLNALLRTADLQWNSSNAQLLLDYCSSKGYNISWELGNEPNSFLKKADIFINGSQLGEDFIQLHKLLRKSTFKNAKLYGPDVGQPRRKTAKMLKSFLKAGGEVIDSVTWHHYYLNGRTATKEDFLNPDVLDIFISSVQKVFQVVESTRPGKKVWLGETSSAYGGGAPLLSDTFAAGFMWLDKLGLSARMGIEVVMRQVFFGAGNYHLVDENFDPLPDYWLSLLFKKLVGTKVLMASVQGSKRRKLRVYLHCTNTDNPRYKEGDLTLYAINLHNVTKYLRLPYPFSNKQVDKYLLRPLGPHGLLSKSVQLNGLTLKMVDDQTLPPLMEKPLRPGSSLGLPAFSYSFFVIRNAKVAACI

[7] = biological target: T2, Heparanase (Homo sapiens) (UniProt Q9Y251); assay: Inhibition of HPSE in human HT1080 cells assessed as reduction in VEGF mRNA expression after 24 hrs by qPCR analysis relative to control; assay type: cell-based
T2 sequence (whole entry): T1 sequence (Q9Y251 whole entry)

U2OS [8] = assay: Anti-invasive activity in human U2OS cells assessed as reduction in invasive potential at 1 uM after 24 hrs by matrigel invasion assay relative to control; assay type: functional
[9] = biological target: T2, Heparanase (Homo sapiens); assay: Inhibition of HPSE in human HT1080 cells assessed as reduction in FGF2 mRNA expression after 24 hrs by qPCR analysis relative to control; assay type: cell-based
U-87 MG [10] = assay: Anti-invasive activity in human U87MG cells assessed as reduction in invasive potential at 1 uM after 24 hrs by matrigel invasion assay relative to control; assay type: functional, U-87MG ATCC
[11] = biological target: T2, Heparanase (Homo sapiens); assay: Inhibition of HPSE in human HT1080 cells assessed as reduction in FGF1 mRNA expression after 24 hrs by qPCR analysis relative to control; assay type: cell-based
[12] = biological target: T2, Heparanase (Homo sapiens); assay: Inhibition of HPSE in human HT1080 cells assessed as reduction in MMP9 mRNA expression after 24 hrs by qPCR analysis relative to control; assay type: cell-based
HT-1080 [13] = assay: Anti-invasive activity in human HT1080 cells assessed as reduction in invasive potential at 1 uM after 24 hrs by matrigel invasion assay relative to control; assay type: functional; settings: HT-1080, 24 h
[14] = biological target: T2, Heparanase (Homo sapiens); assay: Inhibition of HPSE in human HT1080 cells assessed as reduction in HPSE mRNA expression after 24 hrs by qPCR analysis relative to control; assay type: cell-based

SMILES: O=C(O)Cc1ccc(O)c(NC(=O)c2ccc(NC(=O)Nc3ccc(C(=O)Nc4cc(CC(=O)O)ccc4O)cc3)cc2)c1
pIC50 (Heparanase): 5.56

SMILES: Cc1cc2nc(-c3ccc(NC(=O)Nc4ccc(-c5nc6cc(C)c(C)cc6o5)cc4)cc3)oc2cc1C
pIC50 (Heparanase): < 5.00

SMILES: O=C(Nc1ccc(C(=O)Nc2cccc(B(O)O)c2)cc1)Nc1ccc(C(=O)Nc2cccc(B(O)O)c2)cc1
pIC50 (Heparanase): < 5.00

SMILES: Cc1cc2nc(N3CCC(NC(=O)NC4CCN(c5nc6cc(C)c(C)cc6o5)CC4)CC3)oc2cc1C
pIC50 (Heparanase): < 5.00

SMILES: O=C(O)Cc1ccc2oc(N3CCC(NC(=O)NC4CCN(c5nc6cc(CC(=O)O)ccc6o5)CC4)CC3)nc2c1
pIC50 (Heparanase): < 5.00

SMILES: O=C(O)Cc1ccc2[nH]c(-c3ccc(NC(=S)Nc4ccc(-c5nc6cc(CC(=O)O)ccc6[nH]5)cc4F)c(F)c3)nc2c1
pIC50 (Heparanase): 6.00

SMILES: COc1ccc(C(=O)Nc2ccc(CNc3ccc(-c4nc5cc(CC(=O)O)ccc5[nH]4)cc3F)cc2)cc1Br
inhibition [7]: Active
inhibition at 1 µM (U2OS [8]): 50 to 90%
inhibition [9]: Active
inhibition at 1 µM (U-87 MG [10]): 50 to 90%
pIC50 (U-87 MG [3]; Homo sapiens, U-87 MG, 72 h, read-out: IC50): 5.55
inhibition [11]: Active
inhibition [12]: Active
pIC50 (U2OS [4]; Homo sapiens, U2OS, 72 h, read-out: IC50): 5.77
pIC50 (HT-1080 [5]; Homo sapiens, HT-1080, 72 h, read-out: IC50): 5.06
inhibition at 1 µM (HT-1080 [13]): 50 to 90%
inhibition [14]: Active

SMILES: O=C(Cc1ccc2[nH]c(-c3ccc(NC(=O)Nc4ccc(-c5nc6cc(CC(=O)NC(Cc7ccccc7)C(=O)O)ccc6[nH]5)cc4F)c(F)c3)nc2c1)NC(Cc1ccccc1)C(=O)O (stereo unspecified)
pIC50 (Heparanase): 6.09

Second part, led by results:

IC50 (U-87 MG [3]): Not Active
IC50 (U2OS [4]): Not Active
IC50 (HT-1080 [5]): Not Active
pIC50 (Heparanase): 6.43
SMILES: CC(NC(=O)Cc1ccc2oc(-c3ccc(NC(=O)Nc4ccc(-c5nc6cc(CC(=O)NC(C)C(=O)O)ccc6o5)cc4F)c(F)c3)nc2c1)C(=O)O (stereo unspecified)
inhibition at 10 µM (HT-1080 [1]): < 50%
inhibition at 10 µM (U2OS [2]): < 50%
inhibition at 10 µM (U-87 MG [6]): 50 to 90%

pIC50 (Heparanase): < 5.00
SMILES: O=C(O)Cc1ccc2oc(-c3cccc(NC(=O)Nc4cccc(-c5nc6cc(CC(=O)O)ccc6o5)c4)c3)nc2c1

pIC50 (Heparanase): 5.85
SMILES: O=C(O)Cc1ccc2oc(-c3ccc(NC(=S)Nc4ccc(-c5nc6cc(CC(=O)O)ccc6o5)cc4F)c(F)c3)nc2c1

pIC50 (Heparanase): 5.75
SMILES: O=C(O)Cc1cccc(NC(=O)c2ccc(NC(=O)Nc3ccc(C(=O)Nc4cccc(CC(=O)O)c4)cc3)cc2)c1

pIC50 (Heparanase): 5.31
SMILES: CC(C)CC(NC(=O)Cc1ccc2oc(-c3ccc(NC(=O)Nc4ccc(-c5nc6cc(CC(=O)NC(CC(C)C)B(O)O)ccc6o5)cc4F)c(F)c3)nc2c1)B(O)O (stereo unspecified)

IC50 (U-87 MG [3]): Not Active
IC50 (U2OS [4]): Not Active
IC50 (HT-1080 [5]): Not Active
pIC50 (Heparanase): 6.14
SMILES: O=C(Cc1ccc2oc(-c3ccc(NC(=O)Nc4ccc(-c5nc6cc(CC(=O)NC(Cc7ccccc7)C(=O)O)ccc6o5)cc4F)c(F)c3)nc2c1)NC(Cc1ccccc1)C(=O)O (stereo unspecified)

pIC50 (Heparanase): < 5.00
SMILES: CC(C)CCNC(=O)Cc1ccc2oc(-c3ccc(NC(=O)Nc4ccc(-c5nc6cc(CC(=O)NCCC(C)C)ccc6o5)cc4F)c(F)c3)nc2c1

inhibition ([7]; concentration not given here): < 40%
inhibition [9]: < 40%
IC50 (U-87 MG [3]): Not Active
inhibition [11]: < 40%
inhibition [12]: < 40%
IC50 (U2OS [4]): Not Active
IC50 (HT-1080 [5]): Not Active
inhibition ([14]; concentration not given here): < 40%
pIC50 (Heparanase): 6.35
SMILES: O=C(O)CNC(=O)Cc1ccc2oc(-c3ccc(NC(=O)Nc4ccc(-c5nc6cc(CC(=O)NCC(=O)O)ccc6o5)cc4F)c(F)c3)nc2c1
inhibition at 10 µM (HT-1080 [1]): 50 to 90%
inhibition at 10 µM (U2OS [2]): < 50%
inhibition at 10 µM (U-87 MG [6]): 50 to 90%
